Measured values reported in US6329392A, “Substituted piperidines useful for the treatment of allergic diseases” (Aventis Pharmaceuticals, Inc., priority 1998, dated 2001).

How the values were obtained:
H1 receptor = target: T1, H1 receptor (Cavia porcellus, UniProt P31389); test: Histamine (H1) antagonism in guinea pig ileum; type: cell-based; details: read-out: H1 Receptor Antagonism, pA2, in vitro (converted)
T1 construct: A piece of ileum, about 20 cm in length, is removed and cut into 2 cm pieces; from tissue; host or cells: ileum of male Hartley guinea pigs
T1 sequence (P31389 whole entry): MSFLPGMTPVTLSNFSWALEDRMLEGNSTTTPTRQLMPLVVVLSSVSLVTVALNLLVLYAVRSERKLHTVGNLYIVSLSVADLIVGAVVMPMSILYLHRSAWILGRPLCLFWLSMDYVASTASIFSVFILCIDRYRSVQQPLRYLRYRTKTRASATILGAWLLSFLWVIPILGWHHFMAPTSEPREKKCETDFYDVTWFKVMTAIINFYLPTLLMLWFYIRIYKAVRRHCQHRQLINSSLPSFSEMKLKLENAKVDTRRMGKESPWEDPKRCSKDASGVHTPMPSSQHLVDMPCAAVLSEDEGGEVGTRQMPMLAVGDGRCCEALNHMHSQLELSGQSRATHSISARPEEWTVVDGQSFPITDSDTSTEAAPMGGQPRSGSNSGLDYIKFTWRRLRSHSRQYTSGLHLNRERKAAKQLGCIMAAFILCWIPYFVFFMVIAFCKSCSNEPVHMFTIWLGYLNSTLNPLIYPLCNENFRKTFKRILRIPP
Protocol: Male Hartley guinea pigs, weighing 200-450 grams, are sacrificed by CO2 asphyxiation. A piece of ileum, about 20 cm in length, is removed and cut into 2 cm pieces. Each ileum piece is placed in an organ bath at 37° C. containing Tyrode's solution and is constantly aerated with 95% O2 /5%CO2. Tyrode's solution has the composition: NaCl 136.9 mM, KCl […], CaCl2 1.8 mM, NaH2 PO4 0.42 mM, NaHCO3 11.9 mM, and dextrose 5.55 mM. Contractions are measured with an isometric transducer (Grass FTO3C), and are recorded on a polygraph recorder and/or a computer. The ileum strips are loaded with 1.0 grams of tension and allowed to equilibrate for a minimum of 30 minutes before starting the experiments.
The potency of the antagonism is determined by the magnitude of the shift and is expressed as a pA2 value which is the negative logarithm of the molar concentration of antagonist which produces a two-fold shift of the dose response curve to the right. The pA2 value is calculated by using Schild analysis. O. Arunlakshana and H. O. Schild, Br. J. Pharmacol Chemother. 14, 48-58 (1958).
Table 1 presents pA2 values by the method of Example 93 which indicate potency of H1 receptor antagonism and IC50 values by the method of Example 95 which indicates NK1 receptor binding affinity for representative compounds of the present invention.

NK1 receptor = target: T2, NK1 receptor (Cavia porcellus, UniProt P30547); test: Antagonism of iodinated tachykinin (substance P) binding to NK1 receptors in guinea pig lungs; details: read-out: NK1 Receptor Binding Affinity, IC50
T2 construct: as evaluated in guinea pig lungs (Keystone Biologicals, Cleveland, Ohio); tissue Keystone Biologicals, Cleveland, Ohio; host or cells: guinea pig lung membranes
T2 sequence (P30547 whole entry): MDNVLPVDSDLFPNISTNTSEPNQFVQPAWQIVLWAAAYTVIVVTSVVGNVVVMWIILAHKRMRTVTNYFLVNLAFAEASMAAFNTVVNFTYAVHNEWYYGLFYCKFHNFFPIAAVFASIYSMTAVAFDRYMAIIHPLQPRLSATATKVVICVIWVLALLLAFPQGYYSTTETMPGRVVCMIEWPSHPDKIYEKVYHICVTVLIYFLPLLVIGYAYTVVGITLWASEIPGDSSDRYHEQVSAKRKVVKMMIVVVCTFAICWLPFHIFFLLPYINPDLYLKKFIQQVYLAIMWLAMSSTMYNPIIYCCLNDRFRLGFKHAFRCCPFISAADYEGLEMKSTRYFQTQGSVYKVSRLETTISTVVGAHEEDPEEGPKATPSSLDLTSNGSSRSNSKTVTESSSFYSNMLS
Protocol: Antagonism of iodinated tachykinin binding to NK1 receptors by putative antagonists
One skilled in the art can measure the NK1 receptor affinity of proposed tachykinin antagonists as evaluated in guinea pig lungs (Keystone Biologicals, Cleveland, Ohio). Tissues or cells are homogenized with a Polytron in 15 volumes of 50 mM Tris-HCl buffer (pH 7.4, […]) and centrifuged. The pellet is resuspended in Tris-HCl buffer and centrifuged; the pellet is washed twice by resuspension. The final pellet is resuspended at a concentration of 40 mg/ml incubation buffer and remains at room temperature for at least 15 min prior to use. […] Incubations are performed at room temperature for 90 min; binding is terminated by addition of 50 mM Tris-HCl buffer (pH 7.4, […]) and filtration under vacuum through GF/B filters presoaked with 0.1% polyethyleneimine. Filter bound radioactivity is quantitated in a gamma counter. […] IC50 values (concentration required to inhibit 50% of receptor binding) are generated for each of the test compounds by nonlinear regression using an iterative curve fitting program (GraphPAD Inplot, San Diego, Calif.).

Compound | Kb (H1 receptor) | IC50 (NK1 receptor)
COc1cc(C(=O)N2CCC(CCN3CCC(C(=O)c4nc5ccccc5n4Cc4ccccn4)CC3)(c3ccc(Cl)c(Cl)c3)C2)cc(OC)c1OC (stereo not shown) [Example 33, 1-(3,4,5-Trimethoxy-benzoyl)-3-[2-[4-[1-(pyrid-2-ylmethyl)-1 H-benzoimidazole-2-carbonyl]-piperidin-1-yl]-ethyl]-3-(3,4-dichloro-phenyl)-pyrrolidine] | 41.7 nM | 38 nM
COc1cc(CN2CCC(CCN3CCC(O)(c4nc5ccccc5n4Cc4ccc(F)cc4)CC3)(Cc3ccc(F)cc3)C2=O)cc(OC)c1OC (stereo not shown) [Example 57, 1-(3,4,5-Trimethoxy-benzyl)-3-[2-[4-[1-(4-fluoro-benzyl)-1H-benzoimidazol-2-yl]-4-hydroxy-piperidin-1-yl]-ethyl]-3-(4-fluoro-phenylmethyl)-2-oxo-pyrrolidine] | 155 nM | 114 nM
